Laboratory results published in patent US11014908B2, “Chemical compounds” (Pfizer Inc., priority 2018, dated 2021).

Legend:
HbS = molecular target: T1, HbS (Homo sapiens, UniProt P68871+P69905, E7V); test: 'R'-'T' assay (conversion of oxy HbS to deoxy HbS under deoxygenating conditions); format: biochemical; details: 50% inhibition of HbS 'R'-'T' conversion; 3 uM HbS, <1% O2
T1 construct: HbS was obtained from the blood of homozygous S/S patients; from tissue; host or cells: red blood cells of homozygous S/S patients
Method in brief: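 Oxy HbS diluted to 3 µM in 100 mM potassium phosphate pH 7.4, incubated 1 h at room temperature with compound, then held under <1% O2 for 2 h. Conversion followed by background-corrected 415/430 nm absorbance ratio at 0, 90 and 120 min; percent effect normalized to tucaresol, IC50 from concentration series.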

Hb in dog whole blood = molecular target: T2, Hb in dog whole blood (Canis lupus familiaris, UniProt P60524+P60529); test: Whole blood oxygen affinity assay (Hemox analyzer), dog blood; details: 1 mM compound, 1 hour at 25 C, relative to DMSO
T2 construct: measured in human, dog, and mouse whole blood; from tissue; host or cells: dog whole blood
Source text: Whole Blood Oxygen Affinity Assay
Oxygen affinity is a marker of the ability of Hb to bind and release oxygen in solution. It can be determined in whole blood by measuring the percentage of oxygenated and deoxygenated Hb present at a given oxygen concentration. Oxygen affinity is expressed as the p50, the partial pressure of oxygen at which 50% of the Hb in solution has oxygen bound, or the p20, the partial pressure of oxygen at which 20% of the Hb in solution has oxygen bound.
To determine the effects of compounds of the invention on oxygen affinity the p50 and p20 were measured in human, dog, and mouse whole blood using a Hemeox Analyzer (TCS Scientific). The blood was spiked with a compound of the invention to a concentration of 1 mM and incubated for 1 hour at 25 C with constant rotation. A concentration of 1 mM of compound was selected to approximate 20% hemoglobin occupancy in whole blood. Controls with the same concentration of DMSO, but no compound were incubated in the same way at the same time. Following incubation, samples were immediately assayed for oxygen affinity using the Hemox analyzer. […] Once samples had reached an pO2 of >150 torr, the measurement was initiated by switching to N2, and the percent oxyhemoglobin as a function of partial pressure was recorded. The p20 and p50 of each sample were recorded from the instrument readout. […]

[1] = molecular target: T3, purified sickle cell hemoglobin (HbS) (Homo sapiens, UniProt P68871+P69905, E7V); test: Binding affinity to purified HbS by Surface Plasmon Resonance (SPR); details: crosslinked biotinylated HbS, 1:1 binding model
T3 construct: HbS was obtained from the blood of homozygous S/S patients; from tissue; host or cells: red blood cells of homozygous S/S patients
Method in brief: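 Patient-derived HbS, purified and crosslinked between beta subunits (Lys82-Lys82), biotinylated and captured on streptavidin sensor at 4000–5000 RU. Running buffer 100 mM potassium phosphate pH 7.5, 1 mM EDTA, 0.1 mg/mL BSA, 1% DMSO; 2 min association, ≥5 min dissociation, ≥4 concentrations; Kd from 1:1 model fit.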

IC50 (HbS)	Reduction in p20 (%) Dog (Hb in dog whole blood)	Reduction in p50 (%) Dog (Hb in dog whole blood)	Kd [1]	Structure (SMILES)
4800 nM	10 ± 6%	6 ± 6%	34 nM	C[C@H](Oc1cc2cc(F)ccc2nc1N)c1nc(O)ccc1-n1cccn1 [Example 58, 6-{(1S)-1-[(2-amino-6-fluoroquinolin-3-yl)oxy]ethyl}-5-(1H-pyrazol-1-yl)pyridin-2-ol]
4620 nM			37 nM	C[C@H](Oc1cc2cc(F)cc(F)c2nc1N)c1cc(C(=O)O)ccc1-n1cccn1 [Example 21, 3-{(1S)-1-[(2-amino-6,8-difluoroquinolin-3-yl)oxy]ethyl}-4-(1H-pyrazol-1-yl)benzoic Acid]
